Legend:
Assay type in all cases: in vivo
osteocalcin = test: 28-day mouse side-effect model, serum osteocalcin suppression; conditions: oral gavage 28 days; for ED50 at 28 days: female, Swiss Webster, read-out: Osteocalcin Suppression (ED50 dose)
Description: (§1) 10-12 week old female Swiss Webster mice (Taconic, Germantown, N.Y., U.S.A.) weighing 27-29 grams are used in accordance with the guidelines of the Institutional Animal Care and Use Committee and in accordance with NIH guidelines on laboratory animal welfare. Mice are acclimated to the Pfizer animal facility for 3-7 days prior to being placed on study. Prednisolone and DAGR compounds are administered by oral gavage for a total of 28 days. Each treatment group generally contains 8-10 mice. To establish a dosing regimen for the studies, a pilot pharmacodynamic time course experiment is conducted to quantify TNFa repression after a single ED80 dose (determined from the acute LPS endotoxemia mouse model). […] DAGR compounds vary in their required frequency of doses.
(§2) Body weights are measured on the first and last day of each experiment. Blood samples are obtained after ˜3 weeks of dosing for steady-state pharmacokinetic analysis. To assess compound effects on LPS-induced TNF-a, all mice receive an intraperitoneal injection of LPS (Salmonella Typhosa, Sigma, St. Louis, L-7895) 2.5 hr after the last dose on day 28. Mice are sacrificed 90 min. after LPS administration. Serum samples are assayed for osteocalcin and TNFa using the Linco multiplex assay (St. Charles, Mo.) and Luminex 100 (Austin, Tex.). Samples are diluted 1:20 and the assay is run according to manufacturer's instructions. An osteocalcin standard is purchased separately from Biomedical Technologies Incorporated (Stoughton, Mass.). Serum insulin is measured to assess compound effects on insulin resistance. Insulin was measured using the UltraSensitive Mouse EIA kit from Alpco Diagnostics (Salem, N.H.) following the manufacturer's protocol.
(§3) ED50 and ED80 values are obtained for the various parameters using four-parameter logistic fits of data. For each experiment/dose group, outliers are detected by calculating the number of standard deviations each mouse's value was from the mean of their group and then dividing by the standard deviation of the group. The means and standard deviations used in this calculation omitted the value being examined so that, if it were an outlier, it would have no influence. If the value being examined is more than 2.5 standard deviations from the mean, it was not used in the rest of the calculations.
(§4) Percent inhibition values are then calculated for each animal using the means of the vehicle and 10 mpk prednisone control groups. The individual mouse percent inhibition values are then fit to a four-parameter logistic model using the area under curve mean for each group. Since all four parameters are estimated and the lower plateau is not fixed at 0% and the upper plateau was not fixed at 100%, the ED50 and ED80 values are calculated by using an inverse calibration formula for a response equal to 50% or 80%. The designation “nd” means not determined.

serum insulin = test: 28-day mouse side-effect model, serum insulin; conditions: oral gavage 28 days; for ED50 at 28 days: female, Swiss Webster, read-out: Insulin (ED50 dose)
Description: as §1, §2, §3, §4

LPS-induced TNFα = test: 28-day mouse side-effect model, LPS-induced serum TNFα suppression; conditions: oral gavage 28 days, LPS challenge; for ED50: 672 h, read-out: TNFα Suppression (ED50 dose)
Description: as §1, §2, §3, §4

bone formation rate = test: 28-day mouse side-effect model, cortical bone histomorphometry (bone formation rate); conditions: oral gavage 28 days, tibia cortical bone formation rate; for ED50 at 28 days: female, Swiss Webster, read-out: BFR (ED50 dose)
Description: as §1
During the in-life portion of each study, mice received two IP injections of the fluorochrome calcein (C-0875; Sigma-Aldrich; 20 mg/kg; 200 μL/mouse), dissolved in 2% sodium bicarbonate, on days 1 and 26 for bone histomorphometry measurements. Fluorochrome labels incorporate into the bone mineral and allow measurement of bone formation rate. During the tissue harvest, the left tibia is excised and cleaned for cortical histomorphometry measurements. After all skin and muscle are removed, tibiae are placed in 70% ethanol (4° C.) in the dark for a minimum of 24 hours.
Ground transverse sections are used for histomorphometric analysis of cortical bone^1. Bones are sectioned using a low speed saw (Isomet, Buehler, Lake Bluff, Ill.) equipped with a diamond wafer blade. The end of each tibia is removed proximal to tibia-fibula synostosis and a […] cross-section is cut. Using a roughened glass plate and a cork, sections are ground to […] until transparent and all labels distinguishable under a fluorescent microscope. Sections are dehydrated using the following solutions for a minimum of 2 minutes each: 1) 70% ethanol, 2) 95% ethanol, 3) 100% ethanol, 4) 50/50 ethanol/xylene, and 5) xylene (twice) (Sigma, St. Louis, 534056). Sections are mounted using Eukitt Quick Mounting Medium (Sigma, St. Louis, 03989) and cover-slipped. Using the Osteomeasure Bone Analysis Program (Decatur, Ga.), bone formation rate is calculated by tracing the 1st and 2nd fluorescent labels in addition to tracing the inner and outer perimeter of the bone. Bone formation rate is calculated by the following equation: (Interlabel Width/Label Interval)*(Labeled Perimeter/Bone Perimeter). At least 5 samples are measured from each treatment group in each study.
as §3, §4

[1] = system: Mouse collagen-induced arthritis; test: Therapeutic mouse collagen-induced arthritis (mCIA); conditions: for ED50: 816 h, dosing day 34 to 49, read-out: Therapeutic mCIA (ED50 dose); for Therapeutic mCIA (ED80 dose): dosing day 34 to 49
Source text: Mouse Collagen-induced arthritis is a commonly used chronic, preclinical model of rheumatoid arthritis in which joint swelling and bone destruction occur following immunization with type II collagen. Reduction of disease incidence and severity has been shown previously to be predictive of disease-modification and signs and symptoms mitigation, respectively, in a clinical setting.
In the therapeutic mCIA model, induction of disease incidence and severity was synchronized via LPS stimulation. Male DBA/J mice were immunized with 100 ug of bovine type II collagen (bCII) on day 0. All mice received an intraperitoneal injection of 20 μg of LPS on day 28 and disease was allowed to develop through day 34. At day 34, all mice had disease (incidence=100%) with an average severity score of seven. Dosing of compounds was initiated in the therapeutic mode on day 34 and continued through day 49. Different treatments were compared by measuring the decrease in incidence (i.e., resolution of disease) and the decrease in severity of paw swelling over time.
as §3, §4

Row | Compound | ED50 at 28 days (osteocalcin) | Osteocalcin Suppression (ED80 dose) (osteocalcin) | ED50 at 28 days (serum insulin) | Insulin (ED80 dose) (serum insulin) | ED50 (LPS-induced TNFα) | TNFα Suppression (ED80 dose) (LPS-induced TNFα) | ED50 at 28 days (bone formation rate) | BFR (ED80 dose) (bone formation rate) | ED50 [1] | Therapeutic mCIA (ED80 dose) [1]
1 | C[C@@]1(O)C[C@@]2(Cc3ccccc3)c3ccc(C(=O)NCc4cccnc4)cc3CC[C@@H]2C[C@@]1(O)c1ccccc1 [Comparator D, (4bR,6R,7R,8aR)-4b-benzyl-6,7-dihydroxy-6-methyl-7-phenyl-N-(pyridin-3-ylmethyl)-4b,5,6,7,8,8a,9,10-octahydrophenanthrene-2-carboxamide] | > 60 mg/kg | >60 | > 60 mg/kg | >60 | 11.4 mg/kg | 14.48 | 35.9 mg/kg | >60 |  | 
2 | Cc1ncccc1NC(=O)c1ccc2c(c1)CC[C@@H]1C[C@@](O)(C(F)(F)F)[C@](C)(O)C[C@@]21Cc1ccccc1 [Comparator E, (4bR,6R,7S,8aR)-4b-benzyl-6,7-dihydroxy-6-methyl-N-(2-methylpyridin-3-yl)-7-(trifluoromethyl)-4b,5,6,7,8,8a,9,10-octahydrophenanthrene-2-carboxamide] | 0.78 mg/kg | >1 | > 1 mg/kg | >1 | > 1 mg/kg | >1 | 0.28 mg/kg | 0.33 | 0.13 mg/kg | 1.15
3 | Cc1ncccc1NC(=O)c1ccc2c(c1)CC[C@@H]1C[C@@](O)(c3ccccn3)[C@](C)(O)C[C@@]21Cc1ccccc1 [Comparator C, (4bR,6R,7R,8aR)-4b-benzyl-6,7-dihydroxy-6-methyl-N-(2-methylpyridin-3-yl)-7-(pyridin-2-yl)-4b,5,6,7,8,8a,9,10-octahydrophenanthrene-2-carboxamide] | 3.68 mg/kg | >20 | > 20 mg/kg | >20 | 3.08 mg/kg | 9.87 | 3.72 mg/kg | 7.88 | 0.8 mg/kg | 2.9
